Counter-ions that a name gives are not always drawn. Like-named read-outs stand apart in the source and are kept apart here.
Experiments:
[1] = tested on: Mat Tek Epiderm FT human skin equivalent tissues; conditions: for Dose-normalized skin irritation potential, fold lower than 0.1 M PFB EtOH formulation: interleukin-1α release divided by applied dose, neat melt, FIG. 8A; for skin irritation potential normalized to delivered dose in acceptor, fold lower than 0.1 M PFB EtOH formulation: interleukin-1α release divided by delivered dose in acceptor compartment, FIG. 8B
Method: Evaluation was conducted using human skin equivalent tissues (Epiderm™) with a human interleukin-1α ELISA kit. Interleukin-1α release has been previously established as an indicator for skin irritation and affords evaluating irritation without requiring removal of the test formulation from skin tissues, a potentially damaging process to the tissues when studying viscous formulations. 0.1 M and 0.2 M PFB EtOH formulations, positive control (5% sodium dodecyl sulfate (SDS) in PBS), negative control (PBS) and EtOH solvent control were also evaluated.
Skin irritation was assessed by measuring interleukin-1α release from Mat Tek Epiderm FT™ human skin equivalent tissues (MatTek Corporation, Ashland, Mass.). Experiments were performed according to the manufacturer's recommended protocol. Briefly, new media was added immediately before application of formulations. Formulations were applied to the surface of the tissues for 4 hours. After 4 hours, 200 μL of media was collected for interleukin-la analysis. Interleukin-la release was quantified using a Human Interleukin-la ELISA Kit (Pierce Biotechnology Inc., Rockford, Ill.) according to the manufacturer's recommended Protocol. ThermoFisher Scientific. Instructions of Human IL-1α ELISA Kit. Retrieved from https://www.thermofisher.com/order/catalog/product/EH2IL1A (2014). Absorbance of blank (0 pg/mL Interleukin-1α) was subtracted from absorbance of each sample.

[2] = Partition coefficient n-octanol/water (log Po/w); format: physicochemical
Method: Lipophilicity of propranolol melts or ionic liquids, measured as partition coefficient n-octanol/water (log Po/w), varied depending on the carbon chain length of the counter species (FIG. 6C). The log Po/w of propranolol melts or ionic liquids ranged from 0.76 to 1.76, and were between −0.41 of PRL:Cl and 3.12 of PFB.
A 250 mL volume of n-octanol was shaken with 25 mL of ddH2O and left overnight to obtain n-octanol saturated with water. A 250 mL volume of ddH2O was shaken with 25 mL of n-octanol and left overnight to obtain water saturated with n-octanol. Ten milliliters of saturated n-octanol was added to each 3H-labeled propranolol melt or ionic liquid (6-10 mg) in a 20-mL scintillation vial followed by stirring until the melt or ionic liquid was dissolved completely. 10 mL saturated water was shaken with 10 mL of the 3H-labeled propranolol melt or ionic liquid solution in octanol for 1 minute, followed by 2 minutes of gentle centrifugation (1000 rpm, 74×g, Allegra X-12R centrifuge, FX6100 rotor, Beckman Coulter, Brea, Calif.) to obtain clean separation of the two layers. […] The partition coefficient n-octanol/water was calculated as the logarithm of the concentration of propranolol in octanol divided by the concentration of propranolol in water.

[3] = neat melt, SD of three measurements in parentheses
Method: Standard deviations of three measurements are provided in parentheses.
Viscosity was measured using 1-mL samples with a LC-ARES Test Station (TA Instruments, New Castle, Del.) and a cone (diameter: 25 mm; angle: 0.1 rad). The cone rotation rate was 10 s^−1 and viscosity was measured three times per sample at 25° C. and 37° C. Differential scanning calorimetry (DSC) was performed with a Q2000 DSC with 50 position autosampler (TA Instruments, New Castle, Del.). Sample size was 9-10 mg, and was weighed in an aluminum hermetic pan. Samples were heated from room temperature to 120° C. under N2 atmosphere followed by cooling to […] and subsequent heating back to 120° C. with a ramp rate of 10° C. per minute.

[4] = Molar conductivity (neat, in water, in n-octanol); format: physicochemical; conditions: for molar conductivity in n-octanol: 1.32 mM PRL:C8, 1.24 mM PRL:C5, mean±SD; for molar conductivity in water in comparison to sodium chloride: 25° C. and 37° C., FIGS. 9A and 9B
[5] = porcine skin, 24 hours, 37° C.
Method: Franz diffusion cells were used to assess the skin transport of propranolol melts or ionic liquids using a previously established protocol described in Karande, P., et al., Discovery of transdermal penetration enhancers by high-throughput screening. […] Briefly, the acceptor chamber was filled with degas sed PBS or 4% bovine serum albumin in PBS and a small stir bar was added. Thawed porcine skin was clamped in place between the acceptor and donor chambers with the SC facing up. Care was taken to ensure no air bubbles resided in the acceptor chamber, and skin was stretched to minimize the presence of furrows. PFB solution in either IPM or EtOH was spiked with the 3H-labeled propranolol free base solution to a final concentration of 10 μCi/mL. Alternatively, 3H-labeled propranolol melts or ionic liquids were used as donor formulations. […] Samples from each tissue layer and acceptor solution were dissolved in Solvable (Perkin Elmer, Waltham, Mass.) overnight, and the amount of propranolol was measured using a scintillation counter and standard solution of radiolabeled donors. […] Furthermore, permeability (Kp) was calculated using the following equation, where Jss is the steady-state flux calculated as the slope of the linear portion of the plot of the cumulative amount permeated per unit area versus time, and C is propranolol concentration in donor. […]

[6] = Solubility in organic and aqueous solvents; format: physicochemical

In the case of CCCCCCCCCCCCOS(=O)(=O)[O-].[Na+] [5% SDS in PBS, Sodium dodecyl sulfate, reference compound], the “Interleukin-1α release (irritation)” value ([1]; 4 hours, FIG. 14A) is reported as “highest amount of irritation”.

For CC(C)NCC(O)COc1cccc2ccccc12 (stereo not shown) [PFB, propranolol free base], the “partition coefficient n-octanol/water (log Po/w)” value [2] was 3.12.

In the case of CC(C)NCC(O)COc1cccc2ccccc12.CCCCCOC(=O)CC(C(=O)OCCCCC)S(=O)(=O)O (stereo not shown) [PRL:C5, propranolol diamyl sulfosuccinate], the “Propranolol Melt Viscosity” value ([3]; 25° C.) is reported as 59.5 (1.6) Pa s, the “Propranolol Melt Viscosity” value ([3]; 37° C.) is reported as 14.7 (0.2) Pa s and the “molar conductivity in n-octanol” value ([4]; 25° C.) is reported as 0.35±0.01 S cm^2/mol. For the same compound, the “molar conductivity in n-octanol” value ([4]; 37° C.) was 0.40±0.01 S cm^2/mol, the “molar conductivity in water in comparison to sodium chloride” value ([4]; water) was “much lower molar conductivity” and the “Dose-normalized skin irritation potential, fold lower than 0.1 M PFB EtOH formulation” value ([1]; 4 hours) was 1.7 fold. For the same compound, the “skin irritation potential normalized to delivered dose in acceptor, fold lower than 0.1 M PFB EtOH formulation” value [1] was 3.7 fold.

In the case of CC(C)NCC(O)COc1cccc2ccccc12.CCCCCCOC(=O)CC(C(=O)OCCCCCC)S(=O)(=O)O (stereo not shown) [PRL:C6, propranolol dihexyl sulfosuccinate], the “Propranolol Melt Viscosity” value ([3]; 25° C.) is reported as 1889.4 (325.2) Pa s and the “Propranolol Melt Viscosity” value ([3]; 37° C.) is reported as 180.9 (10.8) Pa s.

With CC(C)NCC(O)COc1cccc2ccccc12.CCCCC(CC)COC(=O)CC(C(=O)OCC(CC)CCCC)S(=O)(=O)O (stereo not shown) [PRL:C8, propranolol dioctyl sulfosuccinate] the “Propranolol Melt Viscosity” value ([3]; 25° C.) was 70.4 (0.9) Pa s, the “Propranolol Melt Viscosity” value ([3]; 37° C.) was 16.9 (0.1) Pa s and the “molar conductivity in n-octanol” value ([4]; 25° C.) was 0.49±0.01 S cm^2/mol. For the same compound, the “molar conductivity in n-octanol” value ([4]; 37° C.) was 0.51±0.01 S cm^2/mol, the “molar conductivity in water in comparison to sodium chloride” value ([4]; water) was “much lower molar conductivity” and the “molar conductivity in water, fold lower than PRL:C5” value ([4]; water, 37° C., concentrations >1 mM) was about 10 fold. For the same compound, the “amount of propranolol delivered into skin layers and acceptor” value [5] was “delivery enhancement into each layer”, the “skin permeability (flux normalized by applied dose)” value [5] was “highest permeability among analog melts or ionic liquids” and the “difference in skin irritation potential between PRL:C8 and PRL:C5” value ([1]; dose-normalized, FIGS. 8A and 8B) was about 10 fold. For the same compound, the “Dose-normalized skin irritation potential, fold lower than 0.1 M PFB EtOH formulation” value ([1]; 4 hours) was 11 fold and the “skin irritation potential normalized to delivered dose in acceptor, fold lower than 0.1 M PFB EtOH formulation” value [1] was 40 fold.

With CC(C)NCC(O)COc1cccc2ccccc12 (stereo not shown) [PRL:Cl, propranolol hydrochloride] the solubility ([6]; methanol, organic solvent or mixture, read-out: solubility in methanol) was 510 mM, the solubility ([6]; water, read-out: solubility in water) was 170 mM and the “partition coefficient n-octanol/water (log Po/w)” value [2] was −0.41.
